# Results from patent publication US11672786B2, “Methods of treating diseases associated with repeat instability” (The Hospital for Sick Children, priority 2016, dated 2023).
# Key:
# [1] = tested on: fully-duplexed (CAG)50●(CTG)50; test: band-shift NA-DNA binding, fully-duplexed repeat; parameters: species or system human; settings: NA 0.15-50 μM, 4% polyacrylamide gel
# Description: FIG. 2 are the results of experiments showing that NA binds to long CAG slip-outs. […] The (CAG)n DNA sequence (left) can fold into an hairpin structure involving mismatched A-A pair flanking C-G base pairs (middle). NA molecules can intercalate into the DNA helix, with the 2-amino-1,8-naphthyridine moiety (in red) hydrogen bonding to guanine and 8-azaquinolone moiety (in blue) hydrogen bonding to adenine. […] Long slip-outs extruded as a single slip-out from a fully base-paired backbone of (CTG)n●(CAG)n, as described (Pearson et al., 2002, Nuc. Acids Res., 30:4534-47). DNAs were mixed with increasing concentrations of NA (0.15 μM, 0.75 μM, 7.5 μM and 50 μM) and resolved on 4% polyacrylamide gels. All lanes are from the same gel, and they were separated for clarity. NA-DNA complexes are shown by brackets, free DNA is indicated by arrowheads. […] The relative migration was measured for the linear and the three slip-outs substrates as the ratio of the migration distance of each NA-DNA complex to the migration distance of the free DNA. The migration distance was measured from the well to a consistent center point of each band. […]
# HT1080-(CAG)850 cells [2] = test: cell toxicity, WST-1 assay; settings: treated with NA for 72 hr
# Experimental: Scale bar represents 20 μm.
# The construction of the HT1080-(CAG)850 cell model was described previously (Sathasivam et al., 1997, Hum. Genet., 99:692-5). Briefly, HT1080 (ATCC) human fibrosarcoma cells were co-transfected with a plasmid (LC15-R) containing 800-850 (CTG)●(CAG) repeats (Nakatani et al., 2005, Nat. Chem. Biol., 1:39-43) and a plasmid encoding PhiC31 integrase. Transfection was performed with a Nucleofector (Lonza, Basel, Switzerland), and stably transfected clones were selected with puromycin. The HT1080-non transcribing (CAG)850 cell model was established by transfecting a plasmid modified from pLC16 by adding a SV40 polyadenylation signal downstream of the repeats, instead of LC15-R. The HT1080-non-transcribing (CAG)850 cell model was established by transfecting a plasmid modified from pLC16 by inserting an additional SV40 polyadenylation signal downstream of the repeats (in addition to the original polyadenylation signals located upstream of the repeats), so that CAG/CTG repeats are floxed by transcription-terminator elements. The AttB-PhiC31 system has been widely used for single copy integration. […]
# HT1080-(CAG)850 cells [3] = test: growth curves of cells; type: cell-based, human; settings: 50 μM NA
# Description: Scale bar represents 20 μm. […] The cell viability was estimated with WST-1 assays. Values represent the means of three independent measures±SD. […] Error bars indicate the SD of triplicate experiments. […] The dashed line indicates the peak CAG size. Allele lengths are grouped in bins spanning 10 repeats. More than 230 alleles were sized per group.
substance,measurement,setting,value
naphthyridine-azaquinolone,NA binding (band-shift),[1],did not bind
same,"acute cytotoxicity (cell viability, WST-1)",HT1080-(CAG)850 cells [2],without causing acute cytotoxicity
same,effect on cell proliferation (growth curves),HT1080-(CAG)850 cells [3],lack of an effect upon cell proliferation
